Holding throughout (assay): PDA plate bioassay of artificial VOC mixture / [8]annulene, two day exposure
What all share (type): cell-based

One assay deals with Aspergillus ochraceus. As to the method:
(§1) An artificial mixture of compounds, as well as [8]annulene, that were positively identified in the atmosphere of the Gliocladium sp., were subjected to PDA plate bioassay tests for a two day exposure period. They were available from Sigma-Aldrich (St. Louis, Mo.) or were prepared via organic synthetic techniques (Strobel et al., Microbiology 147: 2943-2950, 2001). Varying amounts (non-equilibrium conditions) of the mixtures of the VOCs (0.8-30 μl) were placed in a small sterile plastic microcup (4×6 mm) that was firmly fixed in the middle of the test plate, and then test organisms were inoculated around the periphery of the agar surface. The amount of each VOC used was calculated from relative areas (RA's) in Table 2. […] Measurements of fungal growth were made and compared to growth on a control PDA plate having no test compounds. The IC50 and IC100 values were calculated from data plots of inhibition of fungal growth as a function of VOC concentrations (Strobel et al., Microbiology 147: 2943-2950, 2001). The IC values are presented as the amount of VOCs (volume per ml of air space in the Petri plate above the fungal culture). Studies were done in triplicate and the data averaged and standard deviations determined (Strobel et al., Microbiology 147: 2943-2950, 2001). Each test organism, after the two day exposure was tested for its viability by placing it on a fresh plate of PDA.
(§2) The test fungi were exposed to amounts of the VOC's varying from 0.8 μl to 30 μl (non-equilibrium conditions in a 50 ml air space volume above the fungal culture on the Petri plate) and exposed to them for two days after which growth rates were measured and the IC50's and IC100's calculated.
(§3) The artificial mixture was prepared based on the ratios of the compounds identified by GC/MS. The IC50's were calculated on the basis of the μl VOCs/ml of the free gas space in the Petri plate above the fungal culture. The IC100's were extrapolated from the curves obtained by plotting fungal inhibition vs. VOC concentration. The IC100's represent the approximate concentration required to give 100% inhibition of fungal growth. Viability was evaluated by transferring the fungal to a regular PDA plate after exposure to the VOC mixtures.
(§4) The IC50's were calculated on the basis of the μl [8]annulene/ml of the free gas space in the Petri plate above the fungal culture. The IC50's and IC100's were calculated in the same manner as described in Example 1. The IC100's represent the approximate concentration required to give 100% inhibition of fungal growth. Viability was tested by transferring the fungal to a regular PDA plate after exposure to [8]annulene.

The test system of the next assay is Fusarium oxysporum. As to the method:
as §1, §2, §3, §4

Another assay has as its system Pythium ultimum. As to the method: as §1, §2, §3, §4
Another assay deals with Sclerotinia sclerotiorum. How it is done: as §1, §2, §3, §4
In a further assay the test system is Gliocladium sp. How it is done: as §1, §2, §3, §4
Another assay relates to Rhizoctonia solani. As to the method:
as §1, §2, §3, §4

The next assay relates to Verticillium dahliae. How it is done: as §1, §2, §3, §4
In another assay the test system is Geotrichum candidum. As to the method: as §1, §2, §3, §4
[1] abbreviates: after exposure at the IC100 level, placed on fresh agar plate.
[2] abbreviates: two day exposure, approximate concentration for 100% inhibition, extrapolated from inhibition curves.
Where [3] appears, read: two day exposure, μl per ml of free gas space in the Petri plate.

Each structure is given as a SMILES string. “Also recorded” adds a separate entry of the source.

For `C1=CC=CC=CC=C1` [[8]annulene, 1,3,5,7-cyclooctatetraene], the Viability entry in the assay with Aspergillus ochraceus (setting [1]) is listed as “alive”; in the assay with Fusarium oxysporum (setting [1]), “alive”; in the assay with Pythium ultimum (setting [1]), “did not die; also recorded: alive”; in the assay with Sclerotinia sclerotiorum (setting [1]) it was “did not die; also recorded: alive”; with Gliocladium sp. (setting [1]), “alive”; with Rhizoctonia solani (setting [1]), “alive”. The Viability entry with Verticillium dahliae (setting [1]) and in the assay with Geotrichum candidum (setting [1]) was “alive” each time. Besides, the IC100 with Aspergillus ochraceus (setting [2]) is given as 0.50 μl/ml; in the assay on Fusarium oxysporum (setting [2]) it was 0.70 μl/ml; with Pythium ultimum (setting [2]) it was 0.30 μl/ml; in the assay with Sclerotinia sclerotiorum (setting [2]) it was 0.30 μl/ml; in the assay with Gliocladium sp. (setting [2]) it was 0.60 μl/ml; with Rhizoctonia solani (setting [2]), 0.40 μl/ml. The figures for the IC100 with Verticillium dahliae (setting [2]) and in the assay with Geotrichum candidum (setting [2]) were 0.30 μl/ml and 0.44 μl/ml, respectively. The IC50 with Aspergillus ochraceus (setting [3]) is 0.08 ± 0.01 μl/ml; with Fusarium oxysporum (setting [3]), 0.28 ± 0.03 μl/ml; in the assay with Pythium ultimum (setting [3]) it was 0.10 ± 0.04 μl/ml; in the assay on Sclerotinia sclerotiorum (setting [3]) it was 0.05 ± 0.01 μl/ml; in the assay with Gliocladium sp. (setting [3]) it was 0.30 ± 0.01 μl/ml; in the assay with Rhizoctonia solani (setting [3]), 0.14 ± 0.08 μl/ml. In addition, the IC50 is 0.18 ± 0.00 μl/ml with Verticillium dahliae (setting [3]) and 0.10 ± 0.02 μl/ml in the assay on Geotrichum candidum (setting [3]).
